Experimental data: US8962891B2, “Synthetic analogs of sphingolipids” (Hadasit Medical Research Services & Development Limited, priority 2007, dated 2015)
pIC50: −log10 of the molar value.

What was measured:
Pancreas tumor cells = test: Pancreas tumor cell viability after combined treatment (MTT test); type: cell-based; settings: 24 h; for cell viability (MTT), combination of AD2730 and ADYZ197: 2 μM AD2730 combined with 10 μM ADYZ197
Experimental: FIG. 3A-3B: The viability of pancreatic cells using different drug combination for 24, h (MTT test)
The inventors next examined the effect of combining the compound of the invention with known chemotherapeutic drugs. Pancreas tumor cells were incubated with 1 μM taxol and 2 μM AD2750, (separately and in combination). The results are shown in the left part of the graph, in FIG. 3A, as percent of viable cells (checked by MTT). A combination of 20 μM fluorouracil and 8 μM AD2750 is shown in the right part of the graph, in FIG. 3A.
The inventors next examined the potential anti-cancerous effect of other compounds of Formula II. Therefore, pancreas tumor cells were incubated with 2 μM AD2730 and 10 μM ADYZ197, separately and in combination. The results are presented in the left part of the graph, in FIG. 3B, as percent of viable cells (checked by MTT).

[1] = system: pancreas tumor cells (CRL-1687); test: Pancreas tumor (CRL-1687) growth in CD1-nude mice; type: in vivo; settings: 5×10^6 CRL-1687 cells id, 30 mg/kg ip in 10% CE beginning day 1, up to 35 days
Experimental: In order to examine the applicability of the compounds of the invention as an anti-cancerous drug, the inventors next examined the effect of i.p. administration of AD2750, on pancreas tumor. Therefore, CD1-nude mice were injected id with 5×10^6 pancreas tumor cells (CRL-1687). The mice were treated ip, with AD2750, beginning day 1, 30, mg/kg in 0.2 ml 10% CE, for up to 35 days. Tumor size was measured and calculated every 5-7 days beginning day 8.

MDA-MB-435 cells = test: MDA-MB-435 survival experiment in nude mice; type: in vivo; settings: CD1-nude mice injected iv with 3×10^6 MDA-MB-435 cells; 20 mg/kg in the drinking water beginning day 1; to day 100
Experimental: CD1-nude mice were injected iv with 3×10^6 MDA-MB-435 cells, which are usually considered as metastatic human breast cancer, but recently are also considered as model cells for melanoma. The mice were treated with AD2750, 20 mg/kg in the drinking water beginning day 1. On day 100, the remaining mice were sacrificed, and the pathology was determined.

CCL-224 = test: IC50 in cancer cell lines (Table 1), CCL-224; type: cell-based; settings: CCL-224 (Colon), incubation 24 hours, FCS no, 0.2*10^6/ml plated cells
CRL-1976 = test: IC50 in cancer cell lines (Table 1), CRL-1976; type: cell-based; settings: CRL-1976 (Sarcoma), incubation 24 hours, FCS yes, 0.2*10^6/ml plated cells
LNCaP = test: IC50 in cancer cell lines (Table 1), LNCaP; type: cell-based; settings: Homo sapiens, LNCaP (Prostate)
BxPC-3 tumor = test: BxPC-3 human pancreatic tumor xenograft efficacy study; type: in vivo; settings: BxPC-3 s.c. in athymic NCr-nu/nu mice
Excerpt: BxPC-3 Human Pancreatic Tumor Model
Thirty-to-forty mg tumor fragments of BxPC-3 tumor from a continuous in vivo passage were implanted subcutaneously (sc) into athymic NCr-nu/nu mice using 12-gauge trocar needles.
Animals were purchased from NCI-approved animal facilities (4-5 weeks old) and acclimated in the laboratories one week prior to experimentation. The animals were housed in microisolator cages in a 12-hour light/dark cycle. Animals received filter-sterilized water and sterile rodent food ad libitum. Cages were changed a minimum of twice weekly. The animals were weighed twice weekly and observed daily (for about sixty days of experiment) for clinical signs.
Tumor Measurements and Body Weights: Tumors measurements and animal body weights are recorded twice weekly. Tumor volume was determined by caliper measurements (mm) and using the formula for an ellipsoid sphere: Length×Width^2/2=Volume (mm^3)
This commonly used formula is also used to calculate tumor weight, assuming unit density (1 mm^3=1 mg).
Parameters Evaluated: For sc tumors trials, a T-C value based on 1, 2, 3 or 4 tumor volume doubling time (days), as appropriate for the particular trial, was made. This evaluation is based on tumor size of the control animals at the end of the treatment period. A T/C (%) or T/C (%) value was determined. […]

PC-3 = test: IC50 in cancer cell lines (Table 1), PC-3; type: cell-based; settings: Homo sapiens, PC-3 (Prostate)
Du-145 = test: IC50 in cancer cell lines (Table 1), Du-145; type: cell-based; settings: Homo sapiens, Du-145 (Prostate)
CRL-5803 = test: IC50 in cancer cell lines (Table 1), CRL-5803; type: cell-based; settings: CRL-5803 (NSCLC, Lung carcinoma), incubation 24 hours, FCS yes, 0.1 × 10^6/ml plated cells
CRL-1687 = test: IC50 in cancer cell lines (Table 1), CRL-1687; type: cell-based; settings: CRL-1687 (Pancreas), incubation 24 hours, FCS yes, 0.2*10^6/ml plated cells
CRL-5891 = test: IC50 in cancer cell lines (Table 1), CRL-5891; type: cell-based; settings: CRL-5891 (NSCLC, Lung carcinoma), incubation 24 hours, FCS no, 0.1 × 10^6/ml plated cells
MEL624 = test: IC50 in cancer cell lines (Table 1), MEL624; type: cell-based; settings: MEL624 (Melanoma), incubation 24 hours, FCS yes, 0.1 × 10^6/ml plated cells
HL-60 = test: IC50 in cancer cell lines (Table 1), HL-60; type: cell-based; settings: Homo sapiens; HL-60 (Promyelocytic leukemia), incubation 24 hours, FCS no, 0.1 × 10^6/ml plated cells
[2] = incubation 24 hours, FCS yes, 0.1 × 10^6/ml plated cells
[3] = incubation 72 hours, FCS yes, 0.05 × 10^6/ml plated cells
[4] = incubation 24 hours, FCS no, 0.1 × 10^6/ml plated cells
[5] = incubation 48 hours, FCS yes, 0.1 × 10^6/ml plated cells

With `CCCCNC(CO)C(O)c1ccccc1` (centres unmarked) [AD2730, 2-(butylamino)-1-phenylpropane-1,3-diol] the “cell viability (MTT), combination of AD2730 and ADYZ197” value (Pancreas tumor cells) was “significant synergistic effect on reduction of cell viability”.
With `CCCCCCCCCCCCCCNC(CO)CO` [AD2750, 2-(tetradecylamino)propane-1,3-diol] the “reduction in tumor volume” value [1] was “about 5 folds”, the “survival of treated animals” value (MDA-MB-435 cells) was “increased survival” and the tumor incidence (MDA-MB-435 cells) was “significantly reduced tumor incidence”. For the same compound, the pIC50 (CCL-224) was 4.89, the pIC50 (CRL-1976) was 5.30 and the pIC50 (LNCaP; LNCaP, 24 h, incubation 24 hours, FCS no, 0.1 × 10^6/ml plated cells) was 5.31. The pIC50 (LNCaP; LNCaP, 24 h, incubation 24 hours, FCS yes, 0.1 × 10^6/ml plated cells) was 4.82, the pIC50 (LNCaP; LNCaP, 48 h, incubation 48 hours, FCS yes, 0.1 × 10^6/ml plated cells) was 5.06 and the pIC50 (LNCaP; LNCaP, 72 h, incubation 72 hours, FCS yes, 0.05 × 10^6/ml plated cells) was 5.41. The “tumor volume, monotherapy” value (BxPC-3 tumor; 20 or 30 mg/kg i.p. daily for 28 days, vs vehicle) was “clearly reduced tumor volume in a dose dependent manner”, the “tumor volume, combination with Camptosar” value (BxPC-3 tumor; AD2750 20 or 30 mg/kg with Camptosar 60 or 30 mg/kg i.p. for 28 days) was “significant reduction in tumor volume” and the “tumor cell viability (MTT), combination with Taxol” value (Pancreas tumor cells; 2 μM AD2750 combined with 1 μM taxol) was “markedly reduced tumor cell viability”. For the same compound, the “tumor cell viability (MTT), combination with fluorouracil” value (Pancreas tumor cells; 8 μM AD2750 combined with 20 μM fluorouracil) was “markedly reduced tumor cell viability”, the pIC50 (PC-3; [2]) was 4.91 and the pIC50 (PC-3; [3]) was 5.17. For the same compound, the pIC50 (Du-145; [4]) was 5.48, the pIC50 (Du-145; [3]) was 5.12 and the pIC50 (CRL-5803) was 4.96. It also gave a pIC50 (CRL-1687) of 4.82, a pIC50 (CRL-5891) of 5.10 and a pIC50 (MEL624) of 5.05.
Work on `CCCCCCCCCCNC(CO)(CO)CO` [ADYZ195, 2-(decylamino)-2-(hydroxymethyl)propane-1,3-diol] yielded a pIC50 (PC-3; [4]) of under 4.30 and a pIC50 (Du-145; [4]) of under 4.30.
`CCCCCCCCCCCCCCCCCCNC(CO)(CO)CO` [ADYZ197, 2-(octadecylamino)-2-(hydroxymethyl)propane-1,3-diol] was tested, and the pIC50 (CRL-1976) was 4.70, the pIC50 (LNCaP; [4]) was 4.37 and the pIC50 (LNCaP; [5]) was 4.62. For the same compound, the pIC50 (LNCaP; incubation 72 hours, FCS yes, 0.5 × 10^6/ml plated cells) was 5.52, the “cell viability (MTT), combination of AD2730 and ADYZ197” value (Pancreas tumor cells) was “significant synergistic effect on reduction of cell viability” and the “tumor cell viability (MTT), combination with fluorouracil” value (Pancreas tumor cells; 10 μM ADYZ197 combined with 20 μM fluorouracil) was “significant reduction of tumor cell viability”. For the same compound, the pIC50 (HL-60) was 4.82, the pIC50 (PC-3; [5]) was 5.09 and the pIC50 (PC-3; [3]) was 5.36. The pIC50 (Du-145; [2]) was 5.12, the pIC50 (CRL-5803) was 4.70 and the pIC50 (CRL-1687) was 4.66. It also gave a pIC50 (CRL-5891) of 5.00 and a pIC50 (MEL624) of 5.52.
